Assay results: US10344014B2, “Amorphous form of tetracyclic compound” (Chugai Seiyaku Kabushiki Kaisha, priority 2014, dated 2019)

Assay: Solubility of compound A (form I crystals) in solvents (Example 2)
Format: physicochemical
Protocol: Solubility of 9-ethyl-6,6-dimethyl-8-(4-morpholin-4-yl-piperidin-1-yl)-11-oxo-6,11-dihydro-5H-benzo[b]carbazole-3-carbonitrilemonohydrochloride (hereinafter, a compound A) to each solvent was evaluated.
5 mL of each of the solvents described in Table 5 was added to 5 mg of form I crystals of the compound A. When undissolved crystals were observed, the mixture was stirred at room temperature and the crystals were dissolved using ultrasound (step 1). After the processing described, when undissolved crystals were observed the mixture was further stirred in a water bath at about 50° C. (step 2).
When the crystals were dissolved completely, the form I crystals of the compound A were further added (step 3).
The procedure of the steps 1 to 3 was repeated.
For CH2Cl2, the step 2 and the later step were performed at room temperature.

For `CCc1cc2c(cc1N1CCC(N3CCOCC3)CC1)C(C)(C)c1[nH]c3cc(C#N)ccc3c1C2=O.Cl` [compound A, 9-ethyl-6,6-dimethyl-8-(4-morpholin-4-yl-piperidin-1-yl)-11-oxo-6,11-dihydro-5H-benzo[b]carbazole-3-carbonitrilemonohydrochloride], the “Solubility of compound A in solvent (dissolved or not)” value (1,4-dioxane, 1 mg/mL, about 50° C. while stirring) was “N/N (N: not dissolved)”, the “Solubility of compound A in solvent (dissolved or not)” value (1,4-dioxane, 1 mg/mL, room temperature) was “N/N (N: not dissolved)” and the “Solubility of compound A in solvent (dissolved or not)” value (70% EtOH, 1 mg/mL, room temperature) was “Y/— (Y: dissolved)”. For the same molecule, the “Solubility of compound A in solvent (dissolved or not)” value (70% EtOH, 2 mg/mL, room temperature) was “Y/— (Y: dissolved)”, the “Solubility of compound A in solvent (dissolved or not)” value (70% EtOH, 4 mg/mL, room temperature) was “Y/— (Y: dissolved)” and the “Solubility of compound A in solvent (dissolved or not)” value (70% EtOH, 6 mg/mL, about 50° C. while stirring) was “Y (Y: dissolved)”. For the same molecule, the “Solubility of compound A in solvent (dissolved or not)” value (70% EtOH, 6 mg/mL, room temperature) was “N (N: not dissolved)”, the “Solubility of compound A in solvent (dissolved or not)” value (70% MeCN, 1 mg/mL, room temperature) was “Y/— (Y: dissolved)” and the “Solubility of compound A in solvent (dissolved or not)” value (70% MeCN, 2 mg/mL, room temperature) was “Y/— (Y: dissolved)”. The “Solubility of compound A in solvent (dissolved or not)” value (70% MeCN, 4 mg/mL, room temperature) was “Y/— (Y: dissolved)”, the “Solubility of compound A in solvent (dissolved or not)” value (70% MeCN, 6 mg/mL, room temperature) was “Y/— (Y: dissolved)” and the “Solubility of compound A in solvent (dissolved or not)” value (70% MeCN, 8 mg/mL, room temperature) was “Y/— (Y: dissolved)”. For the same molecule, the “Solubility of compound A in solvent (dissolved or not)” value (70% MeCN, 10 mg/mL, about 50° C. while stirring, *formation of solids was observed inside the test tube) was “Y (Y: dissolved)”, the “Solubility of compound A in solvent (dissolved or not)” value (70% MeCN, 10 mg/mL, room temperature) was “N (N: not dissolved)” and the “Solubility of compound A in solvent (dissolved or not)” value (70% MeOH, 1 mg/mL, room temperature) was “Y/— (Y: dissolved)”. The “Solubility of compound A in solvent (dissolved or not)” value (70% MeOH, 2 mg/mL, room temperature) was “Y/— (Y: dissolved)”, the “Solubility of compound A in solvent (dissolved or not)” value (70% MeOH, 4 mg/mL, about 50° C. while stirring) was “Y (Y: dissolved)” and the “Solubility of compound A in solvent (dissolved or not)” value (70% MeOH, 4 mg/mL, room temperature) was “N (N: not dissolved)”. For the same molecule, the “Solubility of compound A in THF (dissolved or not)” value (70% THF, 1 mg/mL, room temperature) was “Y/— (Y: dissolved)”, the “Solubility of compound A in THF (dissolved or not)” value (70% THF, 6 mg/mL, room temperature) was “Y/— (Y: dissolved)” and the “Solubility of compound A in THF (dissolved or not)” value (70% THF, 8 mg/mL, room temperature) was “Y/— (Y: dissolved)”. The “Solubility of compound A in THF (dissolved or not)” value (70% THF, 10 mg/mL, room temperature) was “Y/— (Y: dissolved)”, the “Solubility of compound A in THF (dissolved or not)” value (70% THF, 12 mg/mL, room temperature) was “Y/— (Y: dissolved)” and the “Solubility of compound A in THF (dissolved or not)” value (70% THF, 14 mg/mL, room temperature) was “Y/— (Y: dissolved)”. For the same molecule, the “Solubility of compound A in solvent (dissolved or not)” value (70% acetone, 1 mg/mL, room temperature) was “Y/— (Y: dissolved)”, the “Solubility of compound A in solvent (dissolved or not)” value (70% acetone, 2 mg/mL, room temperature) was “Y/— (Y: dissolved)” and the “Solubility of compound A in solvent (dissolved or not)” value (70% acetone, 4 mg/mL, room temperature) was “Y/— (Y: dissolved)”. The “Solubility of compound A in solvent (dissolved or not)” value (70% acetone, 6 mg/mL, room temperature) was “Y/— (Y: dissolved)”, the “Solubility of compound A in solvent (dissolved or not)” value (70% acetone, 8 mg/mL, about 50° C. while stirring) was “Y (Y: dissolved)” and the “Solubility of compound A in solvent (dissolved or not)” value (70% acetone, 8 mg/mL, room temperature) was “N (N: not dissolved)”. The “Solubility of compound A in THF (dissolved or not)” value (80% THF, 1 mg/mL, room temperature) was “Y/— (Y: dissolved)”, the “Solubility of compound A in THF (dissolved or not)” value (80% THF, 4 mg/mL, room temperature) was “Y/— (Y: dissolved)” and the “Solubility of compound A in THF (dissolved or not)” value (80% THF, 6 mg/mL, room temperature) was “Y/— (Y: dissolved)”. The “Solubility of compound A in THF (dissolved or not)” value (80% THF, 8 mg/mL, room temperature) was “Y/— (Y: dissolved)”, the “Solubility of compound A in THF (dissolved or not)” value (80% THF, 10 mg/mL, room temperature) was “Y/— (Y: dissolved)” and the “Solubility of compound A in THF (dissolved or not)” value (80% THF, 12 mg/mL, room temperature) was “Y/— (Y: dissolved)”. For the same molecule, the “Solubility of compound A in THF (dissolved or not)” value (90% THF, 1 mg/mL, room temperature) was “Y/— (Y: dissolved)”, the “Solubility of compound A in THF (dissolved or not)” value (90% THF, 3 mg/mL, room temperature) was “Y/— (Y: dissolved)” and the “Solubility of compound A in THF (dissolved or not)” value (90% THF, 5 mg/mL, about 50° C. while stirring) was “N/N (N: not dissolved)”. The “Solubility of compound A in THF (dissolved or not)” value (90% THF, 5 mg/mL, room temperature) was “N/N (N: not dissolved)”, the “Solubility of compound A in THF (dissolved or not)” value (100% THF, 1 mg/mL, about 50° C. while stirring) was “N/N (N: not dissolved)” and the “Solubility of compound A in THF (dissolved or not)” value (100% THF, 1 mg/mL, room temperature) was “N/N (N: not dissolved)”. For the same molecule, the “Solubility of compound A in solvent (dissolved or not)” value (CH2Cl2, 1 mg/mL, room temperature) was “N/— (N: not dissolved)”, the “Solubility of compound A in solvent (dissolved or not)” value (DMSO, 1 mg/mL, room temperature) was “Y/— (Y: dissolved)” and the “Solubility of compound A in solvent (dissolved or not)” value (DMSO, 2 mg/mL, room temperature) was “Y/— (Y: dissolved)”. For the same molecule, the “Solubility of compound A in solvent (dissolved or not)” value (DMSO, 4 mg/mL, about 50° C. while stirring) was “Y (Y: dissolved)”, the “Solubility of compound A in solvent (dissolved or not)” value (DMSO, 4 mg/mL, room temperature) was “N (N: not dissolved)” and the “Solubility of compound A in solvent (dissolved or not)” value (EtOAc, 1 mg/mL, about 50° C. while stirring) was “N/N (N: not dissolved)”. For the same molecule, the “Solubility of compound A in solvent (dissolved or not)” value (EtOAc, 1 mg/mL, room temperature) was “N/N (N: not dissolved)”, the “Solubility of compound A in solvent (dissolved or not)” value (t-BuOH, 1 mg/mL, about 50° C. while stirring) was “N/N (N: not dissolved)” and the “Solubility of compound A in solvent (dissolved or not)” value (t-BuOH, 1 mg/mL, room temperature) was “N/N (N: not dissolved)”.
